# “Also recorded” adds a separate entry of the source.
# Tests used:
# tomato (variety Caramba) = assay: Yield of tomato under drought stress, greenhouse pot test; type: in vivo; settings: for Yield (g/plot accumulation): drought stress 50% water, four foliar sprays, ABA is (S)-(+)-abscisic acid, Lys is L-Lys hydrochloride, control with drought 924.2; for % to T2: yield relative to control with drought stress (T2)
# Description: A pot test of tomato was carried out in a greenhouse in Valencia, Spain. The test was carried out using 20 pots (=20 replications) of tomatoes grown on pots of 0.3 m^2 size. The variety of tomato used was Caramba. Abscisic acid used was (S)-(+)-abscisic acid and Lys used was L-Lys hydrochloride. Foliar spray treatments were carried out four times. The first treatment was carried out at time 61 on the BBCH scale (BBCH61: when the first flower of the first inflorescence bloomed), the second treatment was carried out 21 days after the first treatment, the third treatment was carried out 14 days after the second treatment, and the fourth treatment was carried out 14 days after the third treatment. A harvest survey was carried out at time 82 on the BBCH scale (BBCH82: when 20% of the fruit were fully ripe and colored).
# [1] = system: RD29A, RD29B, MAPKKK18, ABF3F and SLAC1 genes; assay: Induction of expression of environmental stress tolerance (ABA-responsive) genes, real-time PCR, relative to GAPDH; type: in vivo, Arabidopsis thaliana
# Description: (§1) Four to six young Arabidopsis thaliana plants grown on a 50% concentration MS (Murashige-Skoog) agar medium were transferred to a 6-well plate containing a 50% concentration MS (Murashige-Skoog) liquid medium and pre-cultured for 16 hours, then added with a treatment solution containing each amino acid alone or a treatment solution containing a combination of each amino acid and ABA, and left for 6 hours. Then, RNA was then isolated from the plants with a nucleic acid purification kit (Promega, Maxwell (registered trademark) 16 LEV simplyRNA Tissue Kit). Then, cDNA was synthesized with a cDNA synthesis reagent for real-time PCR (Toyobo, ReverTra Ace (registered trademark) qPCR RT Master Mix).
# MAPKKK18 is a gene encoding a kinase (MAPKKK18, MITOGEN-ACTIVATED PROTEIN KINASE KINASE KINASE 18) that functions in the ABA signaling pathway of Arabidopsis thaliana (Zelicourt A. et al., Trends in Plant Science 21: (2016)). RD29A and RD29B are genes encoding hydrophilic proteins (RESPONSIVE TO DESICCATION 29A, RESPONSIVE TO DESICCATION 29B) that are responsive for ABA and environmental stress such as drought stress and salinity stress and considered to be involved in stress tolerance and senescence suppression (Yang S. D. et al., Plant Cell 6: 2155-2168 (2011)). ABF3 is a gene encoding a transcription factor (ABA-responsive element-binding protein) that regulates expression of ABA-responsive genes (Yoshida T. et al., Plant, cell and Environment 38: 35-49 (2015)). SLAC1 is a gene encoding an anion channel involved in stomatal closure (Yoshida et al., J Plant Res (2016) 129:39-49). GAPDH is a glyceraldehyde-3-phosphate dehydrogenase gene and was selected as an internal standard.
# The expression levels of the genes were calculated as relative expression levels to the GAPDH gene. Twenty amino acids were divided into 10 each, and the gene expression inducing activity when combined with ABA was evaluated in two tests (n=2).
# (§2) The expression levels of the respective genes were calculated as relative expression levels to the GAPDH gene in the same manner as in Example 1.
# Separately, Arabidopsis thaliana was treated with a combination of 0.1 mM, 0.25 mM, 1 mM, 2.5 mM, 10 mM, or 25 mM of Lys and 0.25 μM of ABA in the same manner as in Example 1, and expression of MAPKKK18, RD29A, and RD29B genes after 6 hours of treatment was analyzed (n=3). The expression levels of the respective genes were calculated as relative expression levels to the GAPDH gene in the same manner as in Example 1. […]
# as §2, §2
# Arabidopsis thaliana [2] = assay: Drought stress tolerance: survival rate after drought and re-watering; type: in vivo; settings: 12 days after spray, water supplied again at 9 days; 50 μM ABA (2.5 mM Lys in the combination); Mock 8.5%
# Description: A test for verifying an effect of conferring drought stress tolerance by a combination of Lys and ABA was carried out. Arabidopsis thaliana grown on rockwool under short-day conditions for 35 days was spray treated with 50 μM of ABA alone or with 2.5 mM of Lys and 50 μM of ABA in combination. As a control treatment group (Mock), Arabidopsis thaliana was spray treated with DMSO. After the spray treatment, cultivation was continued without water supply, to subject Arabidopsis thaliana to drought stress. Water was again supplied to Arabidopsis thaliana 9 days after the spray treatment, and the survival rate was measured 12 days after the spray treatment (n=94-96).
# RD29B and MAPKKK18 = assay: Effect of Lys derivatives and nitrogen-containing compounds on induction of environmental stress tolerance genes by ABA (activity level); type: in vivo, Arabidopsis thaliana; settings: total of induction activities of RD29B and MAPKKK18 with 1 mM compound and 0.25 μM ABA, relative to ABA alone taken as 1; >1 enhanced, 1 no effect, <1 suppressed
# Description: as §1
# GAPDH is a glyceraldehyde-3-phosphate dehydrogenase gene and was selected as an internal standard.
# Lys or each Lys derivative is used for treatment at 1 mM and ABA at 0.25 μM.
# Arabidopsis thaliana [3] = assay: Drought stress tolerance: dehydration amount during cultivation without water supply; type: in vivo; settings: spray, control approximately 77%
# Description: A test for verifying an effect of conferring drought stress tolerance by a combination of Lys and ABA was carried out (n=4). For Arabidopsis thaliana grown on rockwool under short-day conditions for 35 days, the weight of the rockwool and the whole plant was measured, to determine the initial weight. Arabidopsis thaliana was spray treated with 2.5 mM of Lys and 5 μM or 50 μM of ABA alone or in combination (first spray treatment). As a control treatment group, Arabidopsis thaliana was spray treated with DMSO (first spray treatment). After the first spray treatment, cultivation was continued for 7 days without water supply. During cultivation, a second spray treatment was carried out 4 days after the first spray treatment. The weight of the rockwool and the whole plant was measured 4 and 7 days after the first spray treatment, to determine the post-cultivation weight. The post-cultivation weight was subtracted from the initial weight, to determine the dehydration amount during cultivation.
# Wheat (Norin 61) = assay: Drought stress tolerance of wheat: water loss and survival rate; type: in vivo; settings: 10 μM ABA (2.5 mM Lys in the combination)
# Description: A test for verifying an effect of conferring drought stress tolerance by a combination of Lys and ABA in wheat was carried out. Wheat (Norin 61) grown on rockwool under long-day conditions for 13 days was spray treated with 10 μM of ABA alone or with 2.5 mM or 10 mM of Lys and 10 μM of ABA in combination. As a control treatment group (Mock), the wheat was spray treated with DMSO. After the spray treatment, cultivation was continued without water supply, to subject wheat to drought stress. During cultivation, the water loss from the rockwool was measured. Water was again supplied to the wheat 21 days after the spray treatment, and the survival rate was measured 23 days after the spray treatment (n=24).
# [4] = system: RD29A, RD29B, MAPKKK18, ABF3F and SLAC1 genes; assay: Induction of expression of environmental stress tolerance (ABA-responsive) genes, real-time PCR, relative to GAPDH; type: in vivo, Arabidopsis thaliana; settings: amino acid alone or combination with ABA, 6 hours, n=3
# [5] = MAPKKK18, RD29A, RD29B, 0.05-2.5 mM Lys with 0.25 μM ABA, 6 hours, upper panel of FIG. 3
compound,measurement,setting,value
"CC1=CC(=O)CC(C)(C)C1(O)/C=C/C(C)=C\C(=O)O (racemic) [ABA, abscisic acid, reference compound]",Yield (g/plot accumulation),tomato (variety Caramba); 10 μM ABA and/or 2.5 mM Lys,1008.1 g/plot
same,Yield (g/plot accumulation),tomato (variety Caramba); 100 μM ABA and/or 25 mM Lys,1081.6 g/plot
same,% to T2,tomato (variety Caramba); 10 μM ABA and/or 2.5 mM Lys,109.1%
same,% to T2,tomato (variety Caramba); 100 μM ABA and/or 25 mM Lys,117.0%
same,Expression induction of RD29A and RD29B genes by ABA,"[1]; wild-type strain (WT, Col-0), 0.25 μM ABA, 6 hours",observed
same,survival rate,Arabidopsis thaliana [2],13.5%
same,Activity level,RD29B and MAPKKK18,1
same,dehydration amount on the 4th day,Arabidopsis thaliana [3]; 5 μM ABA (2.5 mM Lys in the combination),approximately 80.1%
same,dehydration amount on the 4th day,Arabidopsis thaliana [3]; 50 μM ABA (2.5 mM Lys in the combination),approximately 57%
same,survival rate,"Wheat (Norin 61); 23 days after spray, water supplied again at 21 days, Mock 9.4%",6.7%
same,dehydration amount on the 5th day,"Wheat (Norin 61); spray, control approximately 84%",approximately 61%
same,dehydration amount on the 6th day,"Wheat (Norin 61); spray, control approximately 91%",approximately 82%
"NCCCC[C@H](N)C(=O)O [No. 1, lysine]",activity to induce expression of the environmental stress tolerance gene RD29B,[4],No activity
same,Yield (g/plot accumulation),tomato (variety Caramba); 10 μM ABA and/or 2.5 mM Lys,1089.3 g/plot
same,Yield (g/plot accumulation),tomato (variety Caramba); 100 μM ABA and/or 25 mM Lys,1114.6 g/plot
same,% to T2,tomato (variety Caramba); 10 μM ABA and/or 2.5 mM Lys,117.9%
same,% to T2,tomato (variety Caramba); 100 μM ABA and/or 25 mM Lys,120.6%
same,activity of synergistically enhancing the effect of the natural-type ABA,[1]; Lys in combination with natural-type ABA ((S)-(+)-ABA),synergistically enhance the effect of the natural-type ABA
same,Lys concentrations at which Lys concentration-dependent improvement in expression inducing activity was observed,[1]; [5],≥ 0.25 mM
same,Lys concentrations at which no improvement in expression inducing activity was observed,[1]; [5],≤ 0.1 mM
same,Lys concentration-dependent improvement in expression inducing activity,"[1]; MAPKKK18, RD29A, RD29B, 0.1-25 mM Lys with 0.25 μM ABA, 6 hours, lower panel of FIG. 3",at least up to Lys concentrations of 10 mM or 25 mM
same,effect of Lys on inducing expression of environmental stress tolerance genes by ABA,"[1]; MAPKKK18 and RD29B, 1 mM Lys in combination with 0.25 μM ABA, 6 hours",enhanced
same,effect of Lys on inducing expression of environmental stress tolerance genes by ABA agonist,"[1]; MAPKKK18 and RD29B, 1 mM Lys in combination with opabactin (OP), 6 hours",enhanced
same,effect of Lys on inducing expression of environmental stress tolerance genes by ABA agonist,"[1]; MAPKKK18 and RD29B, 1 mM Lys in combination with quinabactin (QB), 6 hours",enhanced
same,activity of synergistically enhancing the effect of ABA,"[1]; RD29B expression, amino acid in combination with ABA, listed as Lys",synergistically enhance the effect of ABA; also recorded: significantly high activity
same,effect of enhancing the ABA activity by Lys,"[1]; wild-type strain, 0.5 mM Lys with 0.25 μM ABA, 6 hours",observed

# Reference: patent US20230210110A1, “METHOD FOR INDUCING ENVIRONMENTAL STRESS TOLERANCE IN PLANTS” (AJINOMOTO CO., INC., priority 2020, published 2023)
